Reference: ChEMBL document CHEMBL1126767, “Three-dimensional quantitative structure-activity relationship of angiotesin-converting enzyme and thermolysin inhibitors. II. A comparison of CoMFA models incorporating molecular orbital fields and desolvation free energies based on active-analog and complementary-receptor-field alignment rules” (J Med Chem, 1993)
Square brackets hold non-standard residues; d marks the D form. Peptide text beside a SMILES is read from it. ξ: configuration not given here. ξC = NC(CS)C(=O)O; Mpa = O=C(O)CCS

Target: Angiotensin-converting enzyme (Homo sapiens, UniProt P12821)
Assay: Inhibitory activity against angiotensin converting enzyme (ACE)
Type: functional

| IC50 [µM] | SMILES |
| --- | --- |
| 8.32 | O=C(O)[C@@H]1CCCN1C(=O)CP(=O)(O)O |
| 0.00398 | O=C(O)[C@@H]1CC2(CN1C(=O)CP(=O)(O)CCCCc1ccccc1)SCCS2 |
| 0.339 | NCCCC[C@H](OP(=O)(O)CCCCc1ccccc1)C(=O)N1C[C@H](c2ccccc2)C[C@H]1C(=O)O |
| 0.00107 | NCCCC[C@H](OP(=O)(O)CCCCc1ccccc1)C(=O)N(CC(=O)O)c1ccccc1 |
| 0.000295 | NCCCC[C@H](OP(=O)(O)CCCCc1ccccc1)C(=O)N1c2ccccc2C[C@H]1C(=O)O |
| 0.000891 | NCCCC[C@H](OP(=O)(O)CCCCc1ccccc1)C(=O)N1C[C@@H](Cc2ccccc2)C[C@H]1C(=O)O |
| 0.000295 | NCCCC[C@H](OP(=O)(O)CCCCc1ccccc1)C(=O)N(CC(=O)O)C1CCCCC1 |
| 0.00049 | NCCCC[C@H](OP(=O)(O)CCCCc1ccccc1)C(=O)N1C[C@@H](C2CCCCC2)C[C@H]1C(=O)O |
| 0.00324 | NCCCC[C@H](OP(=O)(O)CCCCc1ccccc1)C(=O)N1C[C@H](C2CCCCC2)C[C@H]1C(=O)O |
| 0.000525 | CS[C@@H]1C[C@@H](C(=O)O)N(C(=O)[C@H](CCCCN)OP(=O)(O)CCCCc2ccccc2)C1 |
| 1820 | O=C(O)[C@H]1CCCN1C(=O)CCS |
| 2000 | O=C(O)CCC(=O)NCC(=O)O |
| 0.646 | O=C(O)[C@@H]1C=CCN1C(=O)CCS |
| 0.457 | O=C(O)CCc1cc(O)c2n(c1=O)[C@H](C(=O)O)CC2 |
| 0.00219 | NCCC[C@H](NC(CCc1ccccc1)C(=O)O)C(=O)N1CCC[C@H]1C(=O)O (stereo partly specified) |
| 67.6 | O=C(CCS)N[C@@H](CS)C(=O)O |
| 240 | O=C(O)[C@@H]1CCCN1CCCS |
| 0.00708 | C[C@H](NP(=O)(O)CCc1ccccc1)C(=O)N1CCC[C@H]1C(=O)O |
| 617 | CC(C)C[C@H](NC(=O)CCC(=O)O)C(=O)O |
| 0.0724 | O=C(NC(CCc1ccccc1)P(=O)(O)CC(=O)N1CCC[C@H]1C(=O)O)c1ccccc1 (stereo partly specified) |
| 0.219 | N[C@@H](Cc1ccccc1)C(=O)N[C@H](CCC(=O)N1[C@H](C(=O)O)C[C@@H]2CCCC[C@@H]21)C(=O)O |
| 33.1 | O=C(O)CCC(=O)N1CCC[C@H]1C(=O)O |
| 2.51 | NCCCCC(NC(=O)OCc1ccccc1)C(=O)N[C@H](CCC(=O)N1c2ccccc2C[C@H]1C(=O)O)C(=O)O (stereo partly specified) |
| 0.001 | O=C(O)CCn1c(=O)n2n(c1=O)[C@H](C(=O)O)C=CC2 |
| 1100 | CC(C)[C@H](NC(=O)CCC(=O)O)C(=O)O |
| 0.01 | O=C(NC(Cc1ccccc1)CP(=O)(O)CC(=O)N1CCC[C@H]1C(=O)O)c1ccccc1 (stereo partly specified) |

| IC50 [µM] | SMILES |
| --- | --- |
| 0.1 | NC(Cc1ccccc1)C(=O)N[C@H](CCC(=O)N1[C@H](C(=O)O)C[C@@H]2CCCC[C@@H]21)C(=O)O (stereo partly specified) |
| 257 | O=C(CS)N[C@@H](Cc1c[nH]cn1)C(=O)O |
| 229 | O=C(CCS)N[C@@H](Cc1cnc[nH]1)C(=O)O |
| 0.00288 | C[C@H](NC(CCCNC(=O)OCc1ccccc1)C(=O)O)C(=O)N1CCC[C@H]1C(=O)O (stereo partly specified) |
| 38.9 | CC(C)(C)OC(=O)[C@@H]1CCCN1C(=O)CCS |
| 0.00302 | C[C@@H]1CCCC(NC(CCc2ccccc2)C(=O)O)C(=O)N1CC(=O)O (stereo partly specified) |
| 0.00646 | CCN(C[C@H](CCc1ccccc1)C(=O)O)C(=O)N1Cc2ccccc2C[C@H]1C(=O)O |
| 0.0525 | CC(C(=O)O)C1CCCCC(CS)C1=O (stereo unspecified) |
| 0.427 | O=C(CCS)N[C@@H](Cc1ccccc1)C(=O)O |
| 0.759 | O=C(CS)N[C@@H](Cc1c[nH]c2ccccc12)C(=O)O |
| 0.00288 | C[C@H](NC(C(=O)O)C1CCCN1C(=O)c1ccccc1)C(=O)N1CCC[C@H]1C(=O)O (stereo partly specified) |
| 47.9 | O=C(O)[C@@H]1CCCN1C(=O)CCP(=O)(O)O |
| 0.000871 | NCCCC[C@H](OP(=O)(O)CCCCc1ccccc1)C(=O)N1C[C@H](O)C[C@H]1C(=O)O |
| 0.000631 | NCCCC[C@H](OP(=O)(O)CCCCc1ccccc1)C(=O)N1CC2(C[C@H]1C(=O)O)SCCS2 |
| 0.000525 | NCCCC[C@H](OP(=O)(O)CCCCc1ccccc1)C(=O)N1C[C@@H](Sc2ccccc2)C[C@H]1C(=O)O |
| 0.000132 | NCCCC[C@H](OP(=O)(O)CCCCc1ccccc1)C(=O)N1C[C@@H](c2ccccc2)C[C@H]1C(=O)O |
| 0.0158 | NCCCC[C@H](OP(=O)(O)CCCCc1ccccc1)C(=O)N1C[C@@H](O)C[C@H]1C(=O)O |
| 0.000115 | NCCCC[C@H](OP(=O)(O)CCCCc1ccccc1)C(=O)N(CC(=O)O)c1ccc2c(c1)OCO2 |
| 0.000288 | COc1ccc(N(CC(=O)O)C(=O)[C@H](CCCCN)OP(=O)(O)CCCCc2ccccc2)cc1OC |
| 0.00479 | C[C@H](CC(CCc1ccccc1)C(=O)O)C(=O)N1c2ccccc2C[C@H]1C(=O)O (stereo partly specified) |
| 0.012 | NCCCCC(N)C(=O)N[C@H](CCC(=O)N1[C@H](C(=O)O)C[C@@H]2CCCC[C@@H]21)C(=O)O (stereo partly specified) |
| 0.000776 | NCCCC[C@H](OP(=O)(O)CCCCc1ccccc1)C(=O)N1C[C@H](Sc2ccccc2)C[C@H]1C(=O)O |
| 0.0646 | O=C(O)[C@@H]1CCCN1C(=O)C1CCCC1S (stereo partly specified) |
| 0.00191 | CS[C@H]1C[C@@H](C(=O)O)N(C(=O)[C@H](CCCCN)OP(=O)(O)CCCCc2ccccc2)C1 |
| 646 | O=C(O)[C@@H]1CCC(=O)N1CCCS |
| 0.00257 | CSC1(SC)C[C@@H](C(=O)O)N(C(=O)[C@H](CCCCN)OP(=O)(O)CCCCc2ccccc2)C1 |

| IC50 [µM] | SMILES |
| --- | --- |
| 3470 | CC(C)(S)C(=O)N[C@@H](CC(=O)O)C(=O)O |
| 2.4 | C[C@H](NCC(=O)O)C(=O)N1CCC[C@H]1C(=O)O |
| 1350 | C[C@H](NC(=O)CCC(=O)O)C(=O)O |
| 0.0562 | O=C(O)C(CCc1ccccc1)N[C@H]1CCN2CCC[C@@H](C(=O)O)N2C1=O (stereo partly specified) |
| 0.0501 | C[C@@H](NC(=O)C(S)Cc1ccccc1)C(=O)N1CCC[C@H]1C(=O)O (stereo partly specified) |
| 2.82 | O=C(O)CNC(=O)CCS |
| 3.02 | CN(CC(=O)O)C(=O)CCS |
| 0.0398 | C[C@H](NC(CCc1ccccc1)C(=O)O)C(=O)N(CC(=O)O)C1Cc2ccccc2C1 (stereo partly specified) |
| 0.00219 | C[C@H](NC(CCc1ccccc1)C(=O)O)C(=O)N1CC2CCCCC2[C@H]1C(=O)O (stereo partly specified) |
| 0.0151 | O=C(N[C@H](CCC(=O)N1[C@H](C(=O)O)C[C@@H]2CCCC[C@@H]21)C(=O)O)C1CCCN1C(=O)OCc1ccccc1 (stereo partly specified) |
| 0.437 | COP(=O)(O)C(CCc1ccccc1)N[C@@H](C)C(=O)N1CCC[C@H]1C(=O)O (stereo partly specified) |
| 0.049 | O=C(O)[C@@H]1CCCN1C(=O)C1CCC1S (stereo partly specified) |
| 0.851 | C[C@H](NC(=O)CCS)C(=O)O |
| 0.000251 | O=C(NC(Cc1ccccc1)C(=O)N[C@H](CCC(=O)N1c2ccccc2C[C@H]1C(=O)O)C(=O)O)OCc1ccccc1 (stereo partly specified) |
| 0.00282 | C[C@H](NC(CCc1ccc(O)cc1)C(=O)O)C(=O)N1CCC[C@H]1C(=O)O (stereo partly specified) |
| 0.00525 | C[C@H](NC(CCC(=O)Nc1ccccc1)C(=O)O)C(=O)N1CCC[C@H]1C(=O)O (stereo partly specified) |
| 10.2 | C[C@H](CC(=O)O)C(=O)N1CCC[C@H]1C(=O)O |
| 1.58 | CC(C)[C@H](NC(=O)CCS)C(=O)O |
| 0.1 | C[C@@]1(CCS)C(=O)N2CC=C[C@@H](C(=O)O)N2C1=O |
| 933 | CC[C@@H](C)[C@H](C)C(=O)N[C@@H](Cc1ccccc1)C(=O)O |
| 1100 | O=C(O)CCCCCS |
| 1050 | CCC(C)[C@H](NC(=O)CCC(=O)O)C(=O)O (stereo partly specified) |
| 0.0407 | C[C@H](NP(=O)(O)OCc1ccccc1)C(=O)N1CCC[C@H]1C(=O)O |
| 0.0708 | O=C(O)[C@@H]1CCCN2C(=O)C[C@@H](CS)C(=O)N12 |
| 0.324 | C[C@H](NC(CCN)C(=O)O)C(=O)N1CCC[C@H]1C(=O)O (stereo partly specified) |
| 550 | O=C(O)CCC(=O)N[C@@H](Cc1ccccc1)C(=O)O |

| IC50 [µM] | SMILES |
| --- | --- |
| 5.75 | C[C@H](NCCCc1ccccc1)C(=O)N1CCC[C@H]1C(=O)O |
| 25.7 | C[C@H](NC(CCc1ccccc1)C(N)=O)C(=O)N1CCC[C@H]1C(=O)O (stereo partly specified) |
| 2.57 | Cc1ccc(N(CC(=O)O)C(=O)C(C)N)cc1 (stereo unspecified) |
| 77.6 | O=C(O)C[C@H](NC(=O)CS)C(=O)O |
| 490 | O=C(O)CCNC(=O)CCS |
| 19.1 | O=C(CS)N[C@@H](CS)C(=O)O |
| 2.51 | O=C(N[C@H](CCC(=O)N1CCC[C@H]1C(=O)O)C(=O)O)C1CCCN1C(=O)OCc1ccccc1 (stereo partly specified) |
| 0.0513 | C[C@H](NC(CCc1ccccc1)P(=O)(O)O)C(=O)N1CCC[C@H]1C(=O)O (stereo partly specified) |
| 30.9 | CN(C(=O)CCS)[C@@H](Cc1ccccc1)C(=O)O |
| 0.000229 | C[C@H](NC(CCC(=O)Nc1ccc(I)cc1)C(=O)O)C(=O)N1CCC[C@H]1C(=O)O (stereo partly specified) |
| 0.708 | O=C(CCS)OC(Cc1ccccc1)C(=O)O (stereo unspecified) |
| 2.4 | O=C(O)CCC(=O)CCS |
| 0.0017 | O=C(O)CN1C(=O)C(NC(CCc2ccccc2)C(=O)O)CCc2ccccc21 (stereo unspecified) |
| 0.708 | O=C(O)[C@@H]1C=CCn2c(=O)n(CS)c(=O)n21 |
| 38 | CC(C)(S)C(=O)N[C@@H](Cc1c[nH]c2ccccc12)C(=O)O |
| 603 | NCC(=O)N[C@@H](Cc1ccccc1)C(=O)O (H-Gly-Phe-OH) |
| 129 | CC[C@H](C)[C@H](N)C(=O)N1CCC[C@H]1C(=O)O (H-Ile-Pro-OH) |
| 417 | CC(C)[C@H](N)C(=O)N1CCC[C@H]1C(=O)O (H-Val-Pro-OH) |
| 0.0631 | NC(CS)C(=O)N1CCC[C@H]1C(=O)O (stereo partly specified) (H-[ξC]-Pro-OH) |
| 2.57 | C[C@H](NC(=O)CCS)C(=O)N1CCC[C@H]1C(=O)O ([Mpa]-Ala-Pro-OH) |
| 33.1 | CC(CS)C(=O)N[C@@H](Cc1c[nH]c2ccccc12)C(=O)O (stereo in doubt) |
| 0.0347 | CC(CS)C(=O)N[C@@H](Cc1c[nH]c2ccccc12)C(=O)O (stereo in doubt; 30A) |
| 0.2 | O=C(O)[C@@H]1CCCN1C(=O)CCS (stereo in doubt; 34) |
| 191 | C[C@@H](N)C(=O)N[C@@H](Cc1ccccc1)C(=O)O (stereo in doubt; 52) |
| 52.5 | C[C@@H](N)C(=O)N[C@@H](Cc1ccccc1)C(=O)O (stereo in doubt; 53) |
| 17 | O=C(O)[C@@H]1CCCN1C(=O)CCS (stereo in doubt; 56) |

| SMILES | IC50 [µM] |
| --- | --- |
| C[C@H](NP(=O)(O)O)C(=O)N1CCC[C@H]1C(=O)O | 0.776 |
| C[C@H](CCC(=O)O)C(=O)N1CCC[C@H]1C(=O)O | 4.9 |
